Test results published in PMC6888615, “A Miniaturized Pump Out Method for Characterizing Molecule Interaction with ABC Transporters” (International Journal of Molecular Sciences, 2019).
Where two headings read alike, the source gives them in different places.

Experiments:
P-gp/BCRP [1] = assay: Caco-2 pump out assay, rhodamine 123 excretion; conditions: for Ratio Kout 96/384 wells, P-gp/BCRP: Kout R123 96-well / 384-well; for decrease of Kout of R123: 50 µM (cyclosporin A, elacridar, TPGS 10 µM; doxorubicin 20 µM);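 as to all read-outs here: Caco-2 cells loaded 120 min with 10 µM rhodamine 123, then dye efflux read by fluorescence at 37 °C every 2 min for 1 h, Kout as slope, compared against compound-free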
MRPs [2] = system: MRPs; design: method as in PMID 21415249; conditions: read-out: MRPs IC50 published value; cited from earlier work
MRPs [3] = conditions: cited from earlier work
MRPs [4] = assay: Caco-2 pump out assay, CMFDA excretion; type: cell-based; conditions: for effect on rate out of CMFDA: 50 µM (cyclosporin A 10 µM; doxorubicin 20 µM); for reduction of kout of CMFDA: 50 µM (elacridar 10 µM), p < 0.001
BCRP = conditions: cited from earlier work
P-gp [5] = conditions: cited from earlier work
[6] = Bidirectional transport (Papp) across Caco-2 monolayers on 24-well inserts, 21 days; conditions: human, Caco-2, pH 7.4
P-gp/BCRP [7] = system: P-gp/BCRP;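 also: Caco-2 cells loaded 120 min with 10 µM rhodamine 123, then dye efflux read by fluorescence at 37 °C every 2 min for 1 h, Kout as slope, compared against compound-free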
[8] = system: efflux pump activity in Caco-2 cells; assay: b→a permeability of doxorubicin across Caco-2 with efflux pump inhibitors; type: in vitro ADME; conditions: doxorubicin 20 µM; cyclosporin A 10 µM, elacridar 0.5 µM
P-gp [9] = conditions: read-out: P-gp IC50 based on the digoxin ER; cited from earlier work

## CN(C)C(=O)CCSC(SCCC(=O)O)c1cccc(C=Cc2ccc3ccc(Cl)cc3n2)c1 (centres unmarked) [MK571, 3-[[3-[2-(7-chloroquinolin-2-yl)vinyl]phenyl]-(2-dimethylcarbamoylethylsulfanyl)methylsulfanyl] propionic acid]
P-gp/BCRP [1]
  kout Rho 123, mean: 70.9 ± 10.6 pmol.min^−1.mg^−1 Protein
  Ratio Kout 96/384 wells, P-gp/BCRP: 1.19
P-gp/BCRP [1]; 96 wells
  Transporter interaction, P-gp/BCRP: + (Interaction with efflux pumps when Kout ≤ 80% of control)
P-gp/BCRP [1]; 384 wells
  Transporter interaction, P-gp/BCRP: + (Interaction with efflux pumps when Kout ≤ 80% of control)
P-gp/BCRP [1]; MK571 50 µM, p < 0.001
  effect on rate out of cell of R123: slight reduction
MRPs [2]
  IC50: 2.43 µM
MRPs [3]
  IC50: 10 µM
MRPs [4]
  effect on rate out of CMFDA: decreased strongly
MRPs [4]; 96 wells
  Transporter interaction, MRPs: + (Interaction with efflux pumps when Kout ≤ 80% of control)
MRPs [4]; 384 wells
  Transporter interaction, MRPs: + (Interaction with efflux pumps when Kout ≤ 80% of control)
MRPs [4]; read-out: IC50 towards MRPs activity (CMFDA excretion), non-linear regression of pump out assay data
  IC50: 3.8 µM
BCRP
  IC50: 50 µM
P-gp [5]
  IC50: 26 µM

## COC(=O)c1ccccc1-c1c2ccc(=N)cc-2oc2cc(N)ccc12 [R123, rhodamine 123]
[6]
  Papp A→B at 1 h: 1.51 ± 0.01 ×10⁻⁶ cm/s
  Papp B→A at 1 h: 8.94 ± 0.4 ×10⁻⁶ cm/s
  efflux ratio at 1 h, 20 µM: 5.96 ± 0.26

## CC(=O)Nc1ccc(O)cc1 [acetanomiphen]
P-gp/BCRP [1]
  kout Rho 123, mean: 113.7 ± 12.6 pmol.min^−1.mg^−1 Protein
  Ratio Kout 96/384 wells, P-gp/BCRP: 1.08

## O=C(O)Cc1ccccc1Nc1c(Cl)cccc1Cl [diclofenac]
MRPs [4]; 96 wells
  Transporter interaction, MRPs: −
MRPs [4]; 384 wells
  Transporter interaction, MRPs: −

## COc1ccc([C@@H]2Sc3ccccc3N(CCN(C)C)C(=O)[C@@H]2OC(C)=O)cc1 [diltiazem]
MRPs [4]; 96 wells
  Transporter interaction, MRPs: −
MRPs [4]; 384 wells
  Transporter interaction, MRPs: −

## COc1cccc2c1C(=O)c1c(O)c3c(c(O)c1C2=O)C[C@@](O)(C(=O)CO)C[C@@H]3O[C@H]1C[C@H](N)[C@H](O)[C@H](C)O1 [doxorubicin]
P-gp/BCRP [7]; 96 wells
  Transporter interaction, P-gp/BCRP: + (Interaction with efflux pumps when Kout ≤ 80% of control)
P-gp/BCRP [7]; 384 wells
  Transporter interaction, P-gp/BCRP: + (Interaction with efflux pumps when Kout ≤ 80% of control)
P-gp/BCRP [1]; p < 0.001
  decrease of Kout of R123: more than 30%
P-gp/BCRP [1]
  Ratio Kout 96/384 wells, P-gp/BCRP: 1.03
MRPs [4]
  effect on rate out of CMFDA: decreased strongly
MRPs [4]; 96 wells
  Transporter interaction, MRPs: + (Interaction with efflux pumps when Kout ≤ 80% of control)
MRPs [4]; 384 wells
  Transporter interaction, MRPs: −
[6]
  Papp A→B at 1 h: 0.36 ± 0.03 ×10⁻⁶ cm/s
  Papp B→A at 1 h: 7.6 ± 0.4 ×10⁻⁶ cm/s
  efflux ratio at 1 h, 20 µM: 21.9 ± 1.11

## COc1cc2c(cc1OC)CN(CCc1ccc(NC(=O)c3cccc4c(=O)c5cccc(OC)c5[nH]c34)cc1)CC2 [elacridar]
P-gp/BCRP [7]; 96 wells
  Transporter interaction, P-gp/BCRP: + (Interaction with efflux pumps when Kout ≤ 80% of control)
P-gp/BCRP [7]; 384 wells
  Transporter interaction, P-gp/BCRP: + (Interaction with efflux pumps when Kout ≤ 80% of control)
P-gp/BCRP [1]; p < 0.001
  decrease of Kout of R123: more than 30%
P-gp/BCRP [1]
  Ratio Kout 96/384 wells, P-gp/BCRP: 0.81
MRPs [4]
  reduction of kout of CMFDA: more than 20%
MRPs [4]; 96 wells
  Transporter interaction, MRPs: + (Interaction with efflux pumps when Kout ≤ 80% of control)
MRPs [4]; 384 wells
  Transporter interaction, MRPs: + (Interaction with efflux pumps when Kout ≤ 80% of control)
[8]
  reduction of b→a permeability of doxorubicin: 25%

## CN(C)C(=O)C(CCN1CCC(O)(c2ccc(Cl)cc2)CC1)(c1ccccc1)c1ccccc1 [loperamide]
P-gp/BCRP [1]
  kout Rho 123, mean: 42.0 ± 4.9 pmol.min^−1.mg^−1 Protein
  Ratio Kout 96/384 wells, P-gp/BCRP: 1.01
P-gp/BCRP [1]; p < 0.001
  decrease of Kout of R123: more than 30%
P-gp/BCRP [1]; 96 wells
  Transporter interaction, P-gp/BCRP: + (Interaction with efflux pumps when Kout ≤ 80% of control)
P-gp/BCRP [1]; 384 wells
  Transporter interaction, P-gp/BCRP: + (Interaction with efflux pumps when Kout ≤ 80% of control)
MRPs [4]
  reduction of kout of CMFDA: more than 20%
MRPs [4]; 96 wells
  Transporter interaction, MRPs: + (Interaction with efflux pumps when Kout ≤ 80% of control)
MRPs [4]; 384 wells
  Transporter interaction, MRPs: + (Interaction with efflux pumps when Kout ≤ 80% of control)

## OC[C@@H](O)[C@@H](O)[C@H](O)[C@H](O)CO [mannitol, Mannitol D-[1-14C]]
[6]
  Papp A→B at 1 h: 0.26 ± 0.03 ×10⁻⁶ cm/s
  Papp B→A at 1 h: 0.32 ± 0.03 ×10⁻⁶ cm/s

## CCC1(c2ccccc2)C(=O)NC(=O)NC1=O [phenobarbital]
P-gp/BCRP [1]
  kout Rho 123, mean: 107.1 ± 10.0 pmol.min^−1.mg^−1 Protein
  Ratio Kout 96/384 wells, P-gp/BCRP: 1.09

## C=C[C@H]1C[N@@]2CC[C@H]1C[C@@H]2[C@@H](O)c1ccnc2ccc(OC)cc12 [quinidine]
P-gp [9]
  IC50: 4.9 ± 0.9 µM

## CO[C@H]1/C=C/O[C@@]2(C)Oc3c(C)c(O)c4c(O)c(c(/C=N/N5CCN(C)CC5)c(O)c4c3C2=O)NC(=O)/C(C)=C\C=C\[C@H](C)[C@H](O)[C@@H](C)[C@@H](O)[C@@H](C)[C@H](OC(C)=O)[C@@H]1C [rifampicin]
P-gp/BCRP [7]; 96 wells
  Transporter interaction, P-gp/BCRP: + (Interaction with efflux pumps when Kout ≤ 80% of control)
P-gp/BCRP [7]; 384 wells
  Transporter interaction, P-gp/BCRP: + (Interaction with efflux pumps when Kout ≤ 80% of control)
P-gp/BCRP [1]; p < 0.001
  decrease of Kout of R123: more than 30%
P-gp/BCRP [1]
  Ratio Kout 96/384 wells, P-gp/BCRP: 1.12
MRPs [4]
  reduction of kout of CMFDA: more than 20%

## CC[C@]1(O)C[C@@H]2CN(CCc3c([nH]c4ccccc34)[C@@](C(=O)OC)(c3cc4c(cc3OC)N(C)[C@H]3[C@@](O)(C(=O)OC)[C@H](OC(C)=O)[C@]5(CC)C=CCN6CC[C@]43[C@@H]65)C2)C1 [vinblastine]
P-gp/BCRP [1]; p < 0.001
  decrease of Kout of R123: more than 30%
P-gp/BCRP [1]; 96 wells
  Transporter interaction, P-gp/BCRP: + (Interaction with efflux pumps when Kout ≤ 80% of control)
P-gp/BCRP [1]; 384 wells
  Transporter interaction, P-gp/BCRP: + (Interaction with efflux pumps when Kout ≤ 80% of control)
P-gp/BCRP [1]
  Ratio Kout 96/384 wells, P-gp/BCRP: 0.99
MRPs [4]
  reduction of kout of CMFDA: more than 20%

## D-α-Tocopherol polyethylene glycol 1000 succinate
P-gp/BCRP [1]
  kout Rho 123, mean: 33.7 ± 2.7 pmol.min^−1.mg^−1 Protein
P-gp/BCRP [1]; p < 0.001
  decrease of Kout of R123: more than 30%
P-gp/BCRP [1]; 96 wells
  Transporter interaction, P-gp/BCRP: + (Interaction with efflux pumps when Kout ≤ 80% of control)
P-gp/BCRP [1]; 384 wells
  Transporter interaction, P-gp/BCRP: + (Interaction with efflux pumps when Kout ≤ 80% of control)

## Lucifer yellow
Caco-2 cells
  Papp of Lucifer yellow (apical-to-basal): 0.066 ± 0.016 × 10^−6 cm/s
